We go through one compound from patent publication US10040810B2, “Derivatives of bisacylphosphinic acid, their preparation and use as photoinitiators” (priority 2012, dated 2018).

The solubility is the concentration that dissolves in the medium under given conditions. Low readings indicate a poorly soluble substance, high ones a readily soluble substance.

Structures are written as SMILES. In brackets after ≈: the same amount, converted by molar mass.

This data set in a line: Solubility in water. The class given is physicochemical. As for the experimental part: 50 mg of the photoinitiator of example 1 is added to 1 ml of distilled water and the suspension stirred at room temperature for 60 minutes. Non-dissolved material is filtered off, dried in vacuo and weighed. The solubility is approximately 5 mg/ml.

In turn, `Cc1cc(C)c(C(=O)P(=O)(O)C(=O)c2c(C)cc(C)cc2C)c(C)c1` [Example 1, bis(2,4,6-trimethyl-benzoyl)-phosphinic acid] displayed a solubility at 60 min (thermodynamic from solid, distilled water, room temperature, 60 minutes stirring) of about 5000 µg/mL (≈ 14 mM). Moreover, the “solubility in water (in words)” value (water, preparation of formulation 4c) is listed as “low solubility”.
